Our source for the EC50 values is patent US11466029B2, “Compounds useful to treat influenza virus infections” (Nanjing Zhengxiang Pharmaceuticals Co., Ltd., priority 2019, dated 2022).

The subject of this assay is Oseltamivir-resistant A/Weiss/43 (H1N1). The assay is described as follows: microbe, parasite or virus in culture. In kind it is cell-based. Particulars: Influenza A virus, H1N1, MDCK, 120 h.
Broadly, the EC50 is the concentration that produces a half-maximal response. Higher therefore signals a less potent agent. Compound `O=C1c2c(O)c(=O)ccn2N([C@@H]2c3ccccc3[Se]Cc3c2ccc(F)c3F)[C@@H]2COCCN12` [Compound B-1, (R)-12-((S)-7,8-Difluoro-6,11-Dihydrodibenzo[b,e]Selenepin-11-yl)-7-Hydroxy-3,4,12,12a-Tetrahydro-1H-[1,4]Oxazino[3,4-c]Pyrido[2,1-f][1,2,4]Triazine-6,8-Dione] registered an EC50 of 0.0011 µM.

`CCC(CC)O[C@@H]1C=C(C(=O)O)C[C@H](N)[C@H]1NC(C)=O` [Oseltamivir acid, reference compound] had an EC50 greater than 100 µM.

`O=C1c2c(O)c(=O)ccn2N([C@@H]2c3ccccc3SCc3c2ccc(F)c3F)[C@@H]2COCCN12` [Baloxavir acid, reference compound]: the EC50 came out at 0.001 µM.

Consider `CCP(=O)(CC)c1cn2c(c(O)c1=O)C(=O)N1CCOC[C@H]1N2[C@@H]1c2ccccc2SCc2c1ccc(F)c2F` [Compound F-1, (R)-9-(Diethylphosphoryl)-12-((S)-7,8-Difluoro-6,11-Dihydrodibenzo[b,e]-Thiepin-11-yl)-7-Hydroxy-3,4,12,12a-Tetrahydro-1H-[1,4]Oxazino[3,4-c]Pyrido[2,1-f][1,2,4]Triazine-6,8-Dione], for which a half-maximal effect (EC50) was put at 0.881 µM.

For `CP(C)(=O)c1cn2c(c(O)c1=O)C(=O)N1CCOC[C@H]1N2[C@@H]1c2ccccc2SCc2c1ccc(F)c2F` [Compound E-1c, (R)-12-((S)-7,8-difluoro-6,11-dihydrodibenzo[b,e]thiepin-11-yl)-9-(dimethylphosphoryl)-7-hydroxy-3,4,12,12a-tetrahydro-1H-[1,4]oxazino[3,4-c]pyrido[2,1-f][1,2,4]triazine-6,8-dione], the EC50 was 0.254 µM.
